Measured values taken from patent US8652997B2, “Active compound combinations” (Bayer CropScience AG, priority 2009, dated 2014).
Read-outs that look alike come from different tables or passages of the source.

Assays:
Format in all cases: in vivo
[1] = system: larvae of the diamondback moth (Plutella xylostella); test: Plutella xylostella test (sprayed cabbage leaves)
Procedure: (§1) Solvent: 7 parts by weight of dimethylformamide
(§2) Emulsifier: 2 parts by weight of alkylaryl polyglycolether
(§3) To produce a suitable preparation of active compound, 1 part by weight of active compound is mixed with the stated amount of solvent and emulsifier, and the concentrate is diluted with emulsifier-containing water to the desired concentration.
Cabbage leaves (Brassica oleracea) are treated by being sprayed into the preparation of the active compound of the desired concentration and are infested with larvae of the diamondback moth (Plutella xylostella) as long as the leaves are still moist.
After the specified period of time, the mortality in % is determined. 100% means that all the caterpillars have been killed; 0% means that none of the caterpillars have been killed.

[2] = system: Fusarium nivale (var. majus); test: Fusarium nivale (var. majus)-test (wheat)/preventive; settings: preventive spray, evaluated 5 days after inoculation
Procedure: Fusarium nivale (Var. majus)-Test (Wheat)/Preventive
(§4) Solvent: 49 parts by weight of n,n-dimethylacetamid
(§5) Emulsifier: 1 part by weight of alkylaryl polyglycol ether
(§6) To produce a suitable preparation of active compound, 1 part by weight of active compound or active compound combination is mixed with the stated amounts of solvent and emulsifier, and the concentrate is diluted with water to the desired concentration.
(§7) To test for preventive activity, young plants are sprayed with the preparation of active compound or active compound combination at the stated rate of application.
After the spray coating has been dried, the plants are slightly injured by using a sandblast and afterwards they are sprayed with a conidia suspension of Fusarium nivale (var. majus).
The plants are placed in the greenhouse under a translucent incubation cabinet at a temperature of approximately 10° C. and a relative atmospheric humidity of approximately 100%.
The test is evaluated 5 days after the inoculation. 0% means an efficacy which corresponds to that of the control, while an efficacy of 100% means that no disease is observed.

Septoria tritici = test: Septoria tritici-test (wheat)/preventive; settings: preventive spray, evaluated 21 days after inoculation
Procedure: Septoria tritici-Test (Wheat)/Preventive
as §4, §5, §6, §7
After the spray coating has been dried, the plants are sprayed with a spore suspension of Septoria tritici. The plants remain for 48 hours in an incubation cabinet at approximately 20° C. and a relative atmospheric humidity of approximately 100% and afterwards for 60 hours at approximately 15° C. in a translucent incubation cabinet at a relative atmospheric humidity of approximately 100%.
The plants are placed in the greenhouse at a temperature of approximately 15° C. and a relative atmospheric humidity of approximately 80%.
The test is evaluated 21 days after the inoculation. 0% means an efficacy which corresponds to that of the control, while an efficacy of 100% means that no disease is observed.

[3] = system: two spotted spidermites (Tetranychus urticae); test: Tetranychus urticae test (sprayed French bean leaves)
Procedure: as §1, §2, §3
French bean leaves (Phaseolus vulgaris) which are heavily infested with all stages of the two spotted spidermites (Tetranychus urticae) are treated by being sprayed into the preparation of the active compound of the desired concentration.
After the specified period of time, the mortality in % is determined. 100% means that all the spider mites have been killed; 0% means that none of the spider mites have been killed.

[4] = 48 h, after 2 d, read-out: Mortality in % after 2d
[5] = 96 h, after 4 d, read-out: Mortality in % after 4d
[6] = 96 h, read-out: Mortality in % after 4d
[7] = 48 h, read-out: Mortality in % after 2d

Compound: N#Cc1ccccc1NC(=O)c1snc(Cl)c1Cl [Isotianil, 3,4-dichloro-N-(2-cyanophenyl)-5-isothiazolecarboxamide]
- mortality at 200 ppm [1, 4]: 5%
- mortality at 200 ppm [1, 5]: 5%
- Efficacy in % found ([2]; 1000 g/ha): 25%
- Efficacy in % found (Septoria tritici; 500 g/ha): 33%
- Efficacy in % found (Septoria tritici; 1000 g/ha): 33%
- mortality at 200 ppm [3, 4]: 0%
- mortality at 200 ppm [3, 5]: 0%

Compound: Cc1cc(C)c(C2=C(OC(=O)CC(C)(C)C)C3(CCCC3)OC2=O)c(C)c1 [Spiromesifen, spiromesifen]
- mortality at 500 ppm [1, 6]: 25%
- Efficacy in % found ([2]; 250 g/ha): 38%
- mortality at 100 ppm [3, 6]: 75%

Compound: CCOC(=O)OC1=C(c2cc(C)ccc2C)C(=O)N[C@]12CC[C@@H](OC)CC2 [Spirotetramat, spirotetramat]
- mortality at 20 ppm [1, 7]: 20%
- Efficacy in % found (Septoria tritici; 250 g/ha): 22%
- mortality at 20 ppm [3, 6]: 55%

Compound: O=[N+]([O-])/N=C1\NCCN1Cc1ccc(Cl)nc1 [Imidacloprid, imidacloprid]
- mortality at 20 ppm [1, 7]: 0%
- mortality at 100 ppm [1, 7]: 20%
- Efficacy in % found (Septoria tritici; 500 g/ha): 22%
- Efficacy in % found (Septoria tritici; 1000 g/ha): 22%

Compound: CCC(C)(C)C(=O)OC1=C(c2ccc(Cl)cc2Cl)C(=O)OC12CCCCC2 [Spirodiclofen, spirodiclofen]
- mortality at 20 ppm [1, 6]: 15%
- Efficacy in % found ([2]; 250 g/ha): 13%
- Efficacy in % found (Septoria tritici; 250 g/ha): 22%
- mortality at 20 ppm [3, 7]: 30%
